Test results as given in PMC12683216, “Using High‐Throughput Screening to Identify Crosslinking Peptides That Control Cell‐Mediated Matrix Degradation” (Advanced Healthcare Materials, 2025).
Where a SMILES comes first, the peptide text is derived from it. [ ]: non-standard residue; d: D form. βAla = NCCC(=O)O

Assays:
[1] = test system: hMSCs; assay: Cell growth and viability within peptide-crosslinked hydrogels; type: cell-based, human; details: 3.5% 8-arm PEG, 40% arms crosslinking peptide, 10% cyclic RGD, 20 million cells mL^−1, up to Day 7
Text: (§1) Each of the peptides was then used to crosslink hydrogels containing hMSCs or hUVECs at 20 million cells mL^−1 and cultured for 1, 3, or 7 days. To maximize cell spreading, we made soft hydrogels that were 3.5% 8‐arm poly(ethylene glycol) (PEG) by weight. 40% of the arms were reacted with the crosslinking peptides, and 10% of the arms were functionalized with a cyclic RGD peptide for cell adhesion. […] This supports the inhibitor studies for the soluble peptides in which the MMP‐14 inhibitor completely abolished the degradation of the KLVAD‐LM peptide by hUVECs, but not the PanMMP peptide. (Figure 3C).
(§2) For all hydrogel studies, the total volume of hydrogel was 20 µL, made with 3.5% (wt/wt) PEG, 40% of the arms were functionalized with crosslinking peptides, and 10% were functionalized with cyclic‐RGD, with a final cell concentration of 20 million cells per mL. Briefly, the PEG was dissolved at 140 mg mL^−1 in PBS, the crosslinking peptides were dissolved at 22.4 mM in PBS, and the cyclic RGD was dissolved at 5.6 mM in PBS. hMSCs were harvested from T‐75 flasks. After centrifugation and pouring the supernatant liquid, the cells were resuspended at 80 000 000 or 4 000 000 cells mL^−1. The cyclic RGD and PEG PBS solutions were mixed at the ratio of 1:1. Add 10 µL of the PEG‐cyclic RGD mixer in the wells and incubate for 10 mins. The crosslinking peptides and cell solutions were mixed at a ratio of 1:1. 10 µL of the peptide‐cell mixture was pipetted into the PEG‐cyclic RGD mixer previously dropped in the wells. The solutions were pipetted until well mixed, and after 15 min in the incubator 1 mL of media was added into each well and kept in the incubator. For gels intended for imaging, 12 mm round glass coverslips were placed in each well of the 24‐well plates prior to hydrogel fabrication. For cell viability test, sylgard layers were prepared in 24 well plates to prevent unwanted cell growth on the bottom of the well wall. Sylgard kit Part A/Part B was mixed in a 10:1 ratio by volume, and the mixture was added to the 24 well plates such that the bottom of each well was completely covered by Sylgard. The plates were placed in a biosafety hood overnight with UV light on. For all studies, three technical replicates were done per condition, and the studies were repeated three times.
(§3) The hydrogels were washed with PBS three times and incubated in 4% formaldehyde in PBS for 20 min. The hydrogels were again washed with PBS three times, followed by an incubation in 0.25% Triton X‐100 in PBS solution for 20 min. The hydrogels were washed with PBS three times, followed by a 20‐min incubation of in 1% BSA in PBS. The gels were washed 3x in PBS, and 700 µL of Phalloidin/DAPI PBS staining solution (0.1% BSA, 1 µg mL^−1 DAPI, and 1 µg mL^−1 phalloidin‐iFluor 555) was added to each well, and it was incubated for 1 h in the dark at room temperature. The hydrogels were washed 3x, and 1 mL PBS was added to each well, and they were stored in a 4 °C until they were ready for imaging.
(§4) Hydrogels were imaged by confocal microscope (LSM 800, AxioObserver, EC Olan‐Neofluar 10x/0.3 objective). The 12 mm round slides with hydrogels were taken out of 24 well plates and flipped gel side down on round‐bottom slides. Confocal microscopy was carried out in the Z‐stack mode. Phalloidin was excited at 488 nm and recorded between 493 and 630 nm. DAPI was excited at 405 nm and recorded between 410 and 501 nm. Cells in each hydrogel were measured with ImageJ software according to the particle analysis results and then averaged to obtain the mean cell area in the hydrogels.
(§5) On Days 1, 3, and 7, the media from the wells was removed and 500 µL of a 10× diluted Alamar Blue stock solution in media was added to each well with hydrogels. Three wells without any cells were used for background subtraction. The gels were incubated for 4 h, at which time the absorbance was measured with a spectrophotometer at a wavelength of 579 nm (600 nm reference). […]

[2] = test system: hUVECs; assay: as above; type: cell-based, human; details: 3.5% 8-arm PEG, 40% arms crosslinking peptide, 10% cyclic RGD, 20 million cells mL^−1, up to Day 7
Text: as §1, §2, §3, §4, §5

## CC(=O)NCCC(=O)N[C@@H](CCCCN)C(=O)N[C@@H](CC(C)C)C(=O)N[C@H](C(=O)N[C@@H](C)C(=O)N[C@@H](CC(=O)O)C(=O)N1CCC[C@H]1C(=O)N[C@@H](Cc1ccc(O)cc1)C(=O)N[C@@H](C)C(=O)N[C@@H](CO)C(=O)N[C@@H](C)C(=O)N[C@@H](CCC(=O)O)C(=O)NCCC(N)=O)C(C)C [KLVAD-PY] (Ac-[βAla]KLVADPYASAE[βAla]-NH2)
[1]
  cell spreading, growth and viability of hMSCs in crosslinked hydrogels: less cell spreading and viability
[2]
  cell spreading, growth and viability of hUVECs in crosslinked hydrogels: less cell spreading and viability

## CC(=O)NCCC(=O)N[C@@H](CCCCN)C(=O)N[C@@H](CC(C)C)C(=O)N[C@H](C(=O)N[C@@H](C)C(=O)N[C@@H](CC(=O)O)C(=O)N[C@@H](CC(N)=O)C(=O)N[C@@H](Cc1ccc(O)cc1)C(=O)N[C@@H](C)C(=O)N[C@@H](CO)C(=O)N[C@@H](C)C(=O)N[C@@H](CCC(=O)O)C(=O)NCCC(N)=O)C(C)C [KLVAD-NY] (Ac-[βAla]KLVADNYASAE[βAla]-NH2)
[1]
  cell spreading, growth and viability of hMSCs in crosslinked hydrogels: no detectable cells
[2]
  cell spreading, growth and viability of hUVECs in crosslinked hydrogels: only minimal cell spreading

## CSCC[C@H](NC(=O)[C@H](CC(C)C)NC(=O)[C@H](CC(=O)O)NC(=O)[C@H](C)NC(=O)[C@@H](NC(=O)[C@H](CC(C)C)NC(=O)[C@H](CCCCN)NC(=O)CCNC(C)=O)C(C)C)C(=O)N[C@@H](C)C(=O)N[C@@H](CO)C(=O)N[C@@H](C)C(=O)N[C@@H](CCC(=O)O)C(=O)NCCC(N)=O [KLVAD-LM] (Ac-[βAla]KLVADLMASAE[βAla]-NH2)
[1]
  cell spreading, growth and viability of hMSCs in crosslinked hydrogels: supported cell spreading and growth
[2]
  cell spreading, growth and viability of hUVECs in crosslinked hydrogels: supported cell spreading and growth
